From ChEMBL document CHEMBL2176989, “Design, synthesis, and pharmacological evaluation of piperidin-4-yl amino aryl sulfonamides: novel, potent, selective, orally active, and brain penetrant 5-HT₆ receptor antagonists” (J Med Chem, 2012)

Experiments:
[1] = biological target: 5-hydroxytryptamine receptor 6 (Homo sapiens) (UniProt P50406); assay: Antagonist activity at human recombinant 5HT6 receptor expressed in CHO cells assessed as inhibition of 5HT-induced luciferase activity after 4 hrs by reporter gene assay relative to control; format: functional, cell-based
Sequence of 5-hydroxytryptamine receptor 6 (Homo sapiens) (P50406 whole entry): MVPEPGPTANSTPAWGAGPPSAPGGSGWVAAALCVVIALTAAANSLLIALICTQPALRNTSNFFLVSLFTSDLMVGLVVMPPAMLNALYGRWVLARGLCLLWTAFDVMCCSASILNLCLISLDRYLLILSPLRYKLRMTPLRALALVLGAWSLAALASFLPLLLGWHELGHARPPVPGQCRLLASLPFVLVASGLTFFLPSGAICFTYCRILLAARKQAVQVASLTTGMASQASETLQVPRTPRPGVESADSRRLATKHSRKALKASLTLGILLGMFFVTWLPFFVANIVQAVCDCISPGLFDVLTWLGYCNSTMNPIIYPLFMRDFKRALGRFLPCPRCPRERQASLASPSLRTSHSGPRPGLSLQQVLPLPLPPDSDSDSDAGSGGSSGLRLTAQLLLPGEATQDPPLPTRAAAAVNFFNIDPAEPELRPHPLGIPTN

[2] = biological target: 5-hydroxytryptamine receptor 6 (Homo sapiens) (UniProt P50406); assay: Antagonist activity at human recombinant 5HT6 receptor expressed in CHO cells assessed as inhibition of 5HT-induced luciferase activity after 4 hrs by reporter gene assay; format: functional, cell-based
[3] = AUC (0 to 24 hrs) in fasted Wistar rat at 10 mg/kg, po; format: ADME, organism-based; parameters: time < 24 hr, dose 10 mg/kg, route oral; settings: plasma
[4] = Oral bioavailability in fasted Wistar rat at 10 mg/kg; format: ADME, organism-based; settings: in vivo
[5] = Tmax in fasted Wistar rat at 10 mg/kg, po; format: ADME, organism-based; parameters: dose 10 mg/kg, route oral; settings: in vivo
[6] = Cmax in fasted Wistar rat at 10 mg/kg, po; format: ADME, organism-based; parameters: dose 10 mg/kg, route oral; settings: in vivo
[7] = Clearance in Wistar rat at 5 mg/kg, iv; format: ADME, organism-based; parameters: dose 5 mg/kg, route intravenous; settings: in vivo
[8] = Half life in Wistar rat at 5 mg/kg, iv; format: ADME, organism-based; parameters: dose 5 mg/kg, route intravenous; settings: in vivo
[9] = Apparent volume of distribution in Wistar rat at 5 mg/kg, iv; format: ADME, organism-based; parameters: dose 5 mg/kg, route intravenous; settings: in vivo, read-out: Vz
[10] = AUC (0 to 24 hrs) in Wistar rat at 5 mg/kg, iv; format: ADME, organism-based; parameters: time < 24 hr, dose 5 mg/kg, route intravenous; settings: plasma
[11] = Ratio of drug uptake in brain to plasma in Wistar rat at 10 mg/kg, po after 1 hr; format: ADME, organism-based; parameters: dose 10 mg/kg, route oral; settings: read-out: BPR
[12] = Drug metabolism in human liver microsomes at 2.5 uM at 30 mins by LC-MS/MS analysis; format: ADME, Microsome; settings: read-out: Drug metabolism
[13] = Drug metabolism in Wistar rat liver microsomes at 2.5 uM at 30 mins by LC-MS/MS analysis; format: ADME, Microsome; settings: read-out: Drug metabolism
[14] = biological target: Cytochrome P450 2D6 (Homo sapiens, UniProt P10635); assay: Inhibition of CYP2D6 in human liver microsomes using dextromethorphan as substrate after 10 mins by LC-MS/MS analysis in presence of NADPH
Sequence of Cytochrome P450 2D6 (P10635 whole entry): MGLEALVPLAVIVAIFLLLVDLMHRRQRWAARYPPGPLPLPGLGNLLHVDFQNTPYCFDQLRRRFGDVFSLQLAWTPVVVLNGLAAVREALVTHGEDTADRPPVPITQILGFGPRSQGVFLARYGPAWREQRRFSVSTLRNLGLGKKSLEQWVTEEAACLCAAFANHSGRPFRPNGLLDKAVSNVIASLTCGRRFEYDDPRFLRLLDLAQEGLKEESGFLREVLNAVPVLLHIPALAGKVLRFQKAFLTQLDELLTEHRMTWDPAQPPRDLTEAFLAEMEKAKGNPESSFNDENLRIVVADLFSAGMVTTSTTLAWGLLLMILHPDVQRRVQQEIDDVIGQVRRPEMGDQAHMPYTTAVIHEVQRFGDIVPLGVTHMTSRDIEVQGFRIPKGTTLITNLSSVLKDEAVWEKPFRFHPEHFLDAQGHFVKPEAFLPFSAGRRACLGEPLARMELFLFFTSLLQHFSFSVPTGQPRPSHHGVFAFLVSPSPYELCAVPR

[15] = biological target: Voltage-gated inwardly rectifying potassium channel KCNH2 (Homo sapiens, UniProt Q12809); assay: Displacement of [3H]astemizole from human ERG by microbeta scintillation counting
Sequence of Voltage-gated inwardly rectifying potassium channel KCNH2 (Q12809 whole entry): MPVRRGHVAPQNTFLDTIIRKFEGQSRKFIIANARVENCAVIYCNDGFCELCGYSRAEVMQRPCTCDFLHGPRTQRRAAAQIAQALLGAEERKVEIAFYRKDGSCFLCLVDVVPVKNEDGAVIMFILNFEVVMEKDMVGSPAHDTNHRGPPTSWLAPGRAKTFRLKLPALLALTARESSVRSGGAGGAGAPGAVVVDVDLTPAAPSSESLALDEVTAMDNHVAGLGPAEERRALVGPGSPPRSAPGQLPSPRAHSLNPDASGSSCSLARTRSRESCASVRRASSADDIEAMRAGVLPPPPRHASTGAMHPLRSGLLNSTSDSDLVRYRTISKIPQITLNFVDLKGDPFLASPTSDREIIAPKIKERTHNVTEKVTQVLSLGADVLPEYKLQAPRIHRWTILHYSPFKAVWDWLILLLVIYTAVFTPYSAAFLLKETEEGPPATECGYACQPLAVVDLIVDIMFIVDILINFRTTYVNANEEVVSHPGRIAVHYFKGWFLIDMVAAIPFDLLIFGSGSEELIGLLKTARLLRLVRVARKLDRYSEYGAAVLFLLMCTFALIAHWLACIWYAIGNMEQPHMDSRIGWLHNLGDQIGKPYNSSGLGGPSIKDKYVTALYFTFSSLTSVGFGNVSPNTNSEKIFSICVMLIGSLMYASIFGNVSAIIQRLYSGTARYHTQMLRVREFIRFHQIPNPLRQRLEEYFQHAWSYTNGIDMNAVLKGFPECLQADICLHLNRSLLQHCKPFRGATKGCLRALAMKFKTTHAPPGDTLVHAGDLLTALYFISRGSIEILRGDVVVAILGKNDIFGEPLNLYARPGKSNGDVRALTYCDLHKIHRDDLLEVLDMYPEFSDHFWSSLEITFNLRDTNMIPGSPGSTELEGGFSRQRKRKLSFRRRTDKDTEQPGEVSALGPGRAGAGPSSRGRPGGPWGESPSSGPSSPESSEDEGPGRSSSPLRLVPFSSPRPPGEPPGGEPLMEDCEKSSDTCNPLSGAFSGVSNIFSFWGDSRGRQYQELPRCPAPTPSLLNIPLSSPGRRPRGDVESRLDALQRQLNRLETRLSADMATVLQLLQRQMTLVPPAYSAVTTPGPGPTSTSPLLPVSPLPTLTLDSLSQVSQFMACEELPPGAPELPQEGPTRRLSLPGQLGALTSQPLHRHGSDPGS

Structure (SMILES) | Imax [1] | Kb [2] | other results
COc1ccc(S(=O)(=O)n2ccc3ccc(F)cc32)cc1NC1CCN(C)CC1 | 100% | 0.2 nM | –
COc1ccc(S(=O)(=O)n2ccc3ccc(Cl)cc32)cc1NC1CCN(C)CC1 | 100% | 0.14 nM | –
CCc1ccc(S(=O)(=O)n2ccc3ccc(Cl)cc32)cc1NC1CCN(C)CC1 | 98% | 5.3 nM | –
COc1ccc(S(=O)(=O)n2nc(C)c3cc(Cl)ccc32)cc1NC1CCN(C)CC1.O=C(O)C(O)C(O)C(=O)O | 100% | 0.6 nM | AUC(0-t) at 24 h [3]: 300 ng·h/mL; bioavailability [4]: 25%; Tmax [5]: 2 h; Cmax [6]: 57 ng/mL; clearance [7]: 143 mL/min/kg; half-life [8]: 1.7 h; Vd [9]: 16 L/kg; AUC(0-t) at 24 h [10]: 600 ng·h/mL; Kp at 1 h [11]: 0.5; metabolised at 0.5 h, 2.5 µM [12]: 60%; metabolised at 0.5 h, 2.5 µM [13]: 69%; IC50 [14]: 14500 nM
COc1ccc(S(=O)(=O)n2ccc3ccc(F)cc32)cc1NC1CCNCC1 | 100% | 0.3 nM | –
CCc1ccc(S(=O)(=O)n2ccc3ccccc32)cc1NC1CCN(C)CC1 | 99% | 1.39 nM | –
COc1ccc(S(=O)(=O)n2cc(C)c3nc(Cl)ccc32)cc1NC1CCN(C)CC1 | 98% | 1.7 nM | –
COc1ccc(S(=O)(=O)N2CC(C)(C)Oc3ccc(F)cc32)cc1NC1CCN(C)CC1 | 100% | 0.1 nM | –
COc1ccc(S(=O)(=O)n2cc(C)c3cc(Cl)ncc32)cc1NC1CCN(C)CC1 | 85% | 1.3 nM | –
CN1CCC(Nc2cccc(S(=O)(=O)n3ccc4ccccc43)c2)CC1 | 92% | 3.19 nM | –
COc1ccc2ccn(S(=O)(=O)c3ccc(C)c(NC4CCN(C)CC4)c3)c2c1 | 98% | 0.25 nM | –
COc1ccc(S(=O)(=O)N2CCc3ccccc3C2)cc1NC1CCN(C)CC1 | 98% | 0.07 nM | Kp at 1 h [11]: 0.24
COc1cnc2c(c1)c(C)cn2S(=O)(=O)c1ccc(OC)c(NC2CCN(C)CC2)c1 | 95% | 2.3 nM | –
CN1CCC(Nc2cc(S(=O)(=O)n3ccc4cc(Br)ccc43)ccc2F)CC1 | 94% | 16 nM | –
COc1ccc2c(ccn2S(=O)(=O)c2ccc(F)c(NC3CCN(C)CC3)c2)c1 | 95% | 11.7 nM | –
COc1ccc(S(=O)(=O)n2ccc3cc(OC(C)C)ccc32)cc1NC1CCN(C)CC1 | 100% | 2.2 nM | –
COc1ccc(S(=O)(=O)n2ccc3ccccc32)cc1NC1CCN(C)CC1 | 100% | 1.22 nM | –
COc1ccc2ccn(S(=O)(=O)c3ccc(Cl)c(NC4CCN(C)CC4)c3)c2c1 | 100% | 3.3 nM | –
Cc1cn(S(=O)(=O)c2ccc(F)c(NC3CCN(C)CC3)c2)c2ccccc12 | 100% | 0.52 nM | –
Cc1nn(S(=O)(=O)c2ccc(F)c(NC3CCN(C)CC3)c2)c2ccc(Cl)cc12 | 59% | 10.1 nM | –
COc1ccc(S(=O)(=O)N2CCOc3ccc(C(F)(F)F)cc32)cc1NC1CCN(C)CC1 | 100% | 0.1 nM | –
CN1CCC(Nc2cccc(S(=O)(=O)n3ccc4ccc(Cl)cc43)c2)CC1 | 98% | 2.39 nM | –
COc1ccc(S(=O)(=O)N2CCOc3ccc(Cl)cc32)cc1NC1CCN(C)CC1 | 100% | 0.1 nM | AUC(0-t) at 24 h [3]: 384 ng·h/mL; bioavailability [4]: 12%; Tmax [5]: 0.5 h; Cmax [6]: 197 ng/mL; clearance [7]: 58 mL/min/kg; half-life [8]: 0.7 h; Vd [9]: 2.5 L/kg; AUC(0-t) at 24 h [10]: 1450 ng·h/mL; Kp at 1 h [11]: 0.6; metabolised at 0.5 h, 2.5 µM [12]: 70%; metabolised at 0.5 h, 2.5 µM [13]: 85%
COc1ccc(S(=O)(=O)n2ccc3cc(Cl)cnc32)cc1NC1CCN(C)CC1 | 98% | 0.15 nM | –
COc1ccc2c(ccn2S(=O)(=O)c2ccc(OC)c(NC3CCN(C)CC3)c2)c1 | 96% | 3.8 nM | –
COc1ccc(S(=O)(=O)N2CCCc3ccccc32)cc1NC1CCN(C)CC1 | 100% | 0.06 nM | Kp at 1 h [11]: 0.02

Structure (SMILES) | Imax [1] | Kb [2] | other results
CN1CCC(Nc2cc(S(=O)(=O)n3ccc4ccccc43)ccc2F)CC1 | 100% | 1.6 nM | –
CN1CCC(Nc2cccc(S(=O)(=O)n3ccc4cc(Br)ccc43)c2)CC1 | 98% | 10.3 nM | –
COc1ccc(S(=O)(=O)n2ccc3cc(Cl)ccc32)cc1NC1CCN(C)CC1 | 98% | 4.37 nM | –
Cc1ccc(S(=O)(=O)n2cc(C)c3cc(Cl)cnc32)cc1NC1CCN(C)CC1 | 97% | 3.9 nM | –
COc1ccc2c(ccn2S(=O)(=O)c2ccc(C)c(NC3CCN(C)CC3)c2)c1 | 70% | 51.3 nM | –
COc1cnc2c(ccn2S(=O)(=O)c2ccc(OC)c(NC3CCN(C)CC3)c2)c1 | 90% | 12 nM | –
COc1ccc(S(=O)(=O)n2ccc3cc(F)ccc32)cc1NC1CCN(C)CC1 | 100% | 1.8 nM | –
COc1ccc(S(=O)(=O)n2ccc3cc(Br)ccc32)cc1NC1CCNCC1 | 99% | 3.2 nM | –
Cc1nn(S(=O)(=O)c2ccc(Cl)c(NC3CCN(C)CC3)c2)c2ccc(Cl)cc12 | 39% | 28.6 nM | –
COc1ccc(S(=O)(=O)n2ccc3cc(Br)ccc32)cc1NC1CCN(C)CC1 | 97% | 1.91 nM | –
COc1ccc(S(=O)(=O)N2CCOc3ccc(C)cc32)cc1NC1CCN(C)CC1 | 100% | 0.1 nM | –
Cc1cn(S(=O)(=O)c2cccc(NC3CCN(C)CC3)c2)c2ncc(Cl)cc12 | 99% | 4 nM | –
Cc1ccc(S(=O)(=O)n2ccc3cc(F)ccc32)cc1NC1CCN(C)CC1 | 97% | 7.5 nM | –
COc1ccc(S(=O)(=O)N2CCOc3ccc(F)cc32)cc1NC1CCN(C)CC1 | 100% | 0.1 nM | –
COc1ccc(S(=O)(=O)n2cc(C)c3cc(F)ccc32)cc1NC1CCN(C)CC1 | 100% | 0.52 nM | Ki [15]: 950 nM
COc1ccc(S(=O)(=O)N2CCOc3ccccc32)cc1NC1CCN(C)CC1 | 100% | 0.2 nM | Ki [15]: > 10000 nM
COc1ccc(S(=O)(=O)N2CCCc3ccccc32)cc1NC1CCNCC1 | 100% | 0.1 nM | –
COc1ccc2ccn(S(=O)(=O)c3ccc(OC)c(NC4CCN(C)CC4)c3)c2c1.O=P(O)(O)O | 100% | 0.1 nM | Kp at 1 h [11]: 0.6
CCc1ccc(S(=O)(=O)n2ccc3c(Cl)cccc32)cc1NC1CCN(C)CC1 | 90% | 12.8 nM | –
COc1ccc(S(=O)(=O)n2ccc3cc(F)ccc32)cc1NC1CCNCC1 | 100% | 0.3 nM | –
COc1ccc(S(=O)(=O)n2cc(C)c3cc(Cl)cnc32)cc1NC1CCNCC1 | 97% | 0.1 nM | –
COc1ccc2c(ccn2S(=O)(=O)c2cccc(NC3CCN(C)CC3)c2)c1 | 96% | 12.5 nM | –
COc1ccc(S(=O)(=O)n2cc(C)c3ccc(Cl)cc32)cc1NC1CCN(C)CC1 | 100% | 0.1 nM | –
COc1ccc2ccn(S(=O)(=O)c3cccc(NC4CCN(C)CC4)c3)c2c1 | 100% | 1.2 nM | –
COc1ccc2c(C)cn(S(=O)(=O)c3ccc(OC)c(NC4CCN(C)CC4)c3)c2c1 | 100% | 0.1 nM | –
CCc1ccc(S(=O)(=O)n2ccc3cc(F)ccc32)cc1NC1CCN(C)CC1 | 95% | 18.3 nM | –
